Where two headings read alike, the source gives them in different places.
Molecular target: T1, HIF-2α HIS TAG-PASB Domain (Homo sapiens, UniProt Q99814)
T1 construct: 100 nM HIF-2α HIS TAG-PASB Domain
Experiment: HIF-2α Scintillation Proximity Assay (SPA)
Type: binding
Procedure, shortened: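 IC50 values rest on percent inhibition, where the sample signal is scaled between high and low controls. Wells contain about 100 μL: compound dispensed as 2 μL of DMSO solution, 88 μL protein-probe mix and 10 μL of beads.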

[1] = read-out: Scintillation Proximity Assay IC50
[2] = Scintillation Proximity Assay IC50 (nM)

T1 sequence (Q99814 240-350 limits assumed): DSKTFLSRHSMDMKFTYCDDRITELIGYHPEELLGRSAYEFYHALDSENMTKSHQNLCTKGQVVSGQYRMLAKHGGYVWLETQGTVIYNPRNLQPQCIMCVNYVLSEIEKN

Row | SMILES | IC50 [1] [nM] | IC50 [2] [nM]
1 | O=S(=O)(c1ccc(NCc2cccs2)c2c1[C@H](O)C(F)(F)C2)C(F)F [Compound 528] | > 1000 | 
2 | CS(=O)(=O)c1ccc(Oc2cncc(Br)c2)c2c1[C@H](O)[C@H](F)[C@@H]2F [Compound 328] | < 50 | 
3 | N#Cc1c(Oc2cc(F)cc(Cl)c2)ccc2c1C(O)CS2(=O)=O (stereo not shown) [Compound 353] | 50 to 249 | 
4 | CS(=O)(=O)N1CCC(Oc2ccc(S(=O)(=O)C(F)(F)F)c3c2CC(F)(F)C3O)C1 (stereo not shown) [Compound 630] | > 1000 | 
5 | N#Cc1cc(F)cc(Oc2ccc3c(c2Br)[C@@H](O)CS3(=O)=O)c1 [Compound 415] | > 1000 | 
6 | CC(=O)Nc1ccc(S(=O)(=O)C(F)(F)F)c2c1CCC2O (stereo not shown) [Compound 518] | > 1000 | 
7 | CN(C)C(=O)COc1ccc(S(=O)(=O)C(F)(F)F)c2c1CC(F)(F)C2O (stereo not shown) [Compound 632] | > 1000 | 
8 | O=S1(=O)CC(O)c2c1ccc(Oc1cc(F)cc(F)c1)c2Br (stereo not shown) [Compound 418] | > 1000 | 
9 | COC(=O)C(C)Oc1ccc(S(=O)(=O)C(F)(F)F)c2c1CC(F)(F)C2O (stereo not shown) [Compound 648] | 250 to 1000 | 
10 | NC(=O)Cc1ccc(S(=O)(=O)C(F)(F)F)c2c1CC(F)(F)[C@H]2O [Compound 527] | > 1000 | 
11 | N=S1(=O)CC(O)c2c1ccc(Oc1cc(F)cc(F)c1)c2C(F)F (stereo not shown) [Compound 396] | > 1000 | 
12 | CNCc1c(S(=O)(=O)C(F)(F)F)ccc(Oc2cc(F)cc(Cl)c2)c1Cl [Compound 113] | > 1000 | 
13 | O=S(=O)(c1ccc(C(O)CO)c2c1[C@H](O)C(F)(F)C2)C(F)(F)F (stereo partly shown) [Compound 533] | > 1000 | 
14 | CN=S(=O)(c1ccc(Oc2cc(F)cc(Cl)c2)c(Br)c1)C(F)F (stereo not shown) [Compound 70] | 250 to 1000 | 
15 | N#CN=S(=O)(CF)c1ccc(Oc2cc(F)cc(C#N)c2)c2c1[C@H](O)C(F)(F)C2 (stereo partly shown) [Compound 286] | < 50 | 
16 | N#Cc1cc(F)cc(Oc2ccc3c(c2Br)C(=O)C(F)(F)S3(=O)=O)c1 [Compound 393] | > 1000 | 
17 | CS(=O)(=O)c1ccc(OC[C@H]2CC2(F)F)c2c1[C@H](O)C(F)(F)[C@@H]2F [Compound 769] | 50 to 249 | 
18 | N#Cc1ccc(OCC(F)F)c2c1[C@H](O)C(F)(F)C2 [Compound 688] | > 1000 | 
19 | CS(=O)(=O)c1ccc(Oc2cncc(Br)c2)c2c1C(=O)C(F)(F)C2 [Compound 323] | > 1000 | 
20 | O=S(=O)(c1ccc(Oc2cc(F)cc(Cl)c2)c(CO)c1CO)C(F)F [Compound 87] | > 1000 | 
21 | O=S(=O)(c1ccc(OC2CCC(O)CC2)c2c1C(O)CC2)C(F)(F)F (stereo not shown) [Compound 615] | > 1000 | 
22 | O=S(=O)(c1cc(C(F)(F)F)ccc1Oc1cc(F)cc(Cl)c1)C(F)(F)F [Compound 129] | > 1000 | 
23 | O[C@H]1c2c(C(F)(F)F)ncc(O[C@H]3C[C@H](F)C3)c2C[C@H]1F [Compound 478] | < 50 | 
24 | CC1(O)c2c(ccc(OCc3ccccc3)c2C#N)S(=O)(=O)C1(F)F (stereo not shown) [Compound 459] | > 1000 | 
25 | N#Cc1cc(F)cc(Oc2ccc3c(c2C#CCF)C(O)C(F)(F)S3(=O)=O)c1 (stereo not shown) [Compound 410] | > 1000 | 
26 | C=CC1(O)c2c(ccc(Oc3cc(F)cc(C#N)c3)c2C#N)S(=O)(=O)C1(F)F (stereo not shown) [Compound 460] | > 1000 | 
27 | O=S(=O)(c1ccc(OC2CCc3ncccc32)c2c1[C@H](O)C(F)(F)C2)C(F)(F)F (stereo partly shown) [Compound 733] | > 1000 | 

Row | SMILES | IC50 [1] [nM] | IC50 [2] [nM]
28 | CC1(C)C(O)c2c(ccc(Oc3cc(F)cc(Cl)c3)c2C#N)S1(=O)=O (stereo not shown) [Compound 408] | > 1000 | 
29 | CS(=O)(=NC#N)c1ccc(Oc2cc(F)cc(C#N)c2)c2c1[C@H](O)C(F)(F)[C@H]2F (stereo partly shown) [Compound 318] | > 1000 | 
30 | CN(C)CCOc1ccc(S(=O)(=O)C(F)(F)F)c2c1CC(F)(F)C2O (stereo not shown) [Compound 641] | > 1000 | 
31 | O=S(=O)(c1ccc(CC(O)CO)c2c1C(O)C(F)(F)C2)C(F)(F)F (stereo not shown) [Compound 521, 3-(2,2-difluoro-1-hydroxy-7-((trifluoromethyl)sulfonyl)-2,3-dihydro-1H-inden-4-yl)propane-1,2-diol] | > 1000 | 
32 | C=CCC1(O)c2c(S(=O)(=O)C(F)F)ccc(Oc3cc(F)cc(F)c3)c2CC1(F)F (stereo not shown) [Compound 12] | > 1000 | 
33 | CC1(C)CCC(=O)[C@@H](c2ccc(S(=O)(=O)C(F)(F)F)c3c2CC(F)(F)[C@H]3O)C1 [Compound 546] | > 1000 | 
34 | N#Cc1cc(F)cc(Oc2ccc3c(c2CF)C(O)C(F)(F)S3(=O)=O)c1 (stereo not shown) [Compound 388] | 50 to 249 | 
35 | CS(=O)(=O)N1CCCC(Oc2ccc(S(=O)(=O)C(F)(F)F)c3c2CC(F)(F)C3O)C1 (stereo not shown) [Compound 628] | > 1000 | 
36 | NC(=O)C1CCc2c(OCC(F)F)ccc(C(=O)O)c21 (stereo not shown) [Compound 693] | > 1000 | 
37 | N=S(=O)(c1ccc(Oc2cc(F)cc(Cl)c2)c(Br)c1)C(F)F (stereo not shown) [Compound 69] | > 1000 | 
38 | OC1c2c(Br)ccc(OCC(F)F)c2CC1(F)F (stereo not shown) [Compound 687] | > 1000 | 
39 | CS(=O)(=O)c1ccc(O[C@H]2C[C@H](O)C2)c2c1[C@H](O)C(F)(F)[C@@H]2F [Compound 738] | > 1000 | 
40 | OC1c2c(Br)ccc(OC(F)(F)F)c2CC1(F)F (stereo not shown) [Compound 653] | > 1000 | 
41 | O=S1(=O)c2ccc(Oc3cc(F)cc(Cl)c3)cc2C(O)C1(F)F (stereo not shown) [Compound 362] |  | > 1000
42 | O=S(=O)(c1ccc(Sc2cc(F)cc(Cl)c2)c2c1[C@H](O)CC2)C(F)F [Compound 493, (R)-4-((3-chloro-5-fluorophenyl)thio)-7-((difluoromethyl)sulfonyl)-2,3-dihydro-1H-inden-1-ol] | > 1000 | 
43 | O=[N+]([O-])c1c(Oc2cccc(Cl)c2)ccc(C(F)(F)F)c1Cl [Compound 204] | 50 to 249 | 
44 | CC1(O)c2cc(Oc3cc(F)cc(F)c3)ccc2S(=O)(=O)C1(F)F (stereo not shown) [Compound 425] | > 1000 | 
45 | COc1ccc(S(=O)(=O)C(F)(F)F)c2c1CCC2O (stereo not shown) [Compound 588] | > 1000 | 
46 | CS(=O)(=O)c1ccc(Oc2cncc(Cl)c2)c2c1[C@H](O)C(F)(F)[C@@H]2F [Compound 331] | < 50 | 
47 | O=S(=O)(c1ccc(Oc2cc(F)cc(Cl)c2)c(Br)c1)C(F)(F)F [Compound 116] |  | 50 to 249
48 | CS(=O)(=O)c1ccc(Oc2cncc(F)c2)c2c1[C@H](O)C(F)(F)[C@H]2F [Compound 330] | > 1000 | 
49 | CS(=O)(=O)c1ccc(Nc2cc(F)cc(C#N)c2)c2c1C(O)CC2 (stereo not shown) [Compound 498] | > 1000 | 
50 | N#Cc1c(Oc2cc(F)cc(Cl)c2)ccc(S(=O)(=O)C(F)(F)F)c1C(=O)O [Compound 105] | > 1000 | 
51 | CS(=O)(=O)c1ccc(Oc2cncc(Br)c2)c2c1[C@H](O)[C@H](F)C2 [Compound 326] | > 1000 | 
52 | CCOc1ccc2c(c1C(F)F)[C@@H](O)C(F)(F)S2(=O)=O [Compound 438] | > 1000 | 
53 | O=C(O)COc1ccc(S(=O)(=O)C(F)(F)F)c2c1CC(F)(F)C2O (stereo not shown) [Compound 633] | > 1000 | 
54 | O=C(O)Cc1ccc(S(=O)(=O)C(F)(F)F)c2c1CC[C@H]2O [Compound 524, (R)-2-(1-hydroxy-7-((trifluoromethyl)sulfonyl)-2,3-dihydro-1H-inden-4-yl)acetic acid] | > 1000 | 

Row | SMILES | IC50 [1] [nM] | IC50 [2] [nM]
55 | COc1cncc(Oc2ccc3c(c2Br)[C@@H](O)C(F)(F)S3(=O)=O)c1 [Compound 429] | > 1000 | 
56 | COC(=O)c1cc(S(=O)(=O)C(F)(F)F)ccc1Oc1cc(F)cc(Cl)c1 [Compound 121] |  | > 1000
57 | Cc1c(Oc2cc(F)cc(C#N)c2)ccc(S(=O)(=O)C(F)(F)F)c1C#CCO [Compound 142] | > 1000 | 
58 | N#Cc1cc(F)cc(Oc2ccc(S(=O)(=O)C(F)(F)F)c3c2CC(F)C3N)c1 (stereo not shown) [Compound 265] | 50 to 249 | 
59 | O=S(=O)(CF)c1ccc(Oc2cccc3sccc23)c2c1C(O)CC2 (stereo not shown) [Compound 239] | > 1000 | 
60 | OC1c2c(-c3cn[nH]c3)ccc(OCC(F)F)c2CC1(F)F (stereo not shown) [Compound 684] | > 1000 | 
61 | N=S(=O)(c1ccc(Oc2cc(F)cc(Cl)c2)c(Br)c1)C(F)(F)F (stereo not shown) [Compound 71] | 250 to 1000 | 
62 | CS(=O)(=O)c1ccc(OC2CC2)c2c1[C@H](O)C(F)(F)[C@@H]2F [Compound 773] | > 1000 | 
63 | CCc1ccc(S(=O)(=O)C(F)(F)F)c2c1CCC2O (stereo not shown) [Compound 514] | > 1000 | 
64 | O=S(=O)(c1ccc(Oc2cc(F)cc(Cl)c2)c(Br)c1CNCCO)C(F)(F)F [Compound 108] | > 1000 | 
65 | CS(=O)(=NC#N)c1ccc(Oc2cncc(C#N)c2)c2c1[C@H](O)C(F)(F)[C@@H]2F (stereo partly shown) [Compound 319] | < 50 | 
66 | N#CCS(=O)(=O)c1ccc(Oc2cc(F)cc(F)c2)c2c1C(O)CC2 (stereo not shown) [Compound 14] | > 1000 | 
67 | O=S(=O)(c1ccc(Oc2ccc3[nH]ncc3c2)c2c1C(O)C(F)(F)C2)C(F)(F)F (stereo not shown) [Compound 238] | > 1000 | 
68 | O=S(=O)(c1ccc(CCO)c2c1C(O)C(F)(F)C2)C(F)(F)F (stereo not shown) [Compound 520] | > 1000 | 
69 | CC1(Oc2ccc(S(=O)(=O)C(F)(F)F)c3c2CC(F)(F)[C@H]3O)COC1 [Compound 785] | > 1000 | 
70 | CNC(=O)C(C)Oc1ccc(S(=O)(=O)C(F)(F)F)c2c1CC(F)(F)C2O (stereo not shown) [Compound 645] | > 1000 | 
71 | O=S(=O)(c1ccc(NCc2ccco2)c2c1[C@H](O)C(F)(F)C2)C(F)F [Compound 529] | > 1000 | 
72 | O=S1(=O)C[C@H](O)c2c1ccc(Oc1cccc(F)c1)c2Br [Compound 419] | > 1000 | 
73 | CC1(O)c2c(S(=O)(=O)C(F)F)ccc(Oc3cc(F)cc(C#N)c3)c2CC1(F)F (stereo not shown) [Compound 13] | > 1000 | 
74 | O=S(=O)(c1ccc(Oc2cc(F)cc(CO)c2)c(Br)c1)C(F)(F)F [Compound 177] | > 1000 | 
75 | O/N=C1/c2c(C(F)(F)F)ccc(OCCCF)c2CC1(F)F [Compound 702] | > 1000 | 
76 | N#Cc1c(Oc2cc(F)cc(Cl)c2)ccc2c1CCS2(=O)=O [Compound 351] | > 1000 | 
77 | CC(C)(C)OC(=O)N[C@H]1C[C@@H](O)c2c(S(=O)(=O)C(F)(F)F)ccc(Oc3cc(F)cc(C#N)c3)c21 [Compound 278] | > 1000 | 
78 | CN(C)Cc1c(S(=O)(=O)C(F)F)ccc(Oc2cc(F)cc(Cl)c2)c1C#N [Compound 36] | > 1000 | 
79 | O=S(=O)(c1ccc(-c2ccc3cn[nH]c3c2)c2c1[C@H](O)C(F)(F)C2)C(F)(F)F [Compound 568] | > 1000 | 

— patent US10278942B2 (PELOTON THERAPEUTICS, INC., priority 2015, dated 2019)
